Measurements reported in PMC12147034, “Identification of alkynyl nicotinamide HSN748 as a RET solvent-front mutant inhibitor with intracranial efficacy” (RSC Medicinal Chemistry, 2025).
Like-named read-outs stand apart in the source and are kept apart here.

Columns and labels:
[1] = tested on: parental BaF3 cells; experiment: Cell viability in parental IL-3-dependent BaF3 cells (3 days); assay type: cell-based; details: Fig. S4
Experimental: (A) IMR-90 normal human lung fibroblast cells were plated in 96-well plates and treated with indicated drugs for 5 days. (B) The non-transformed, IL-3-dependent BaF3 cells were cultured in medium with 0.5 nM mouse IL-3 in 96-well plates and treated as in (A) for 3 days. Viable cells were then determined using CellTiter-glo reagent. Data were from two triplicate experiments.
(1 picture or pasted object on this page, not shown here)

[2] = In vivo pharmacokinetics and brain distribution in mice; details: for Kp: CD1, mouse, brain and plasma, iv, 2 mg/kg
Experimental: For compound HSND19, male SD rats received an intravenous (IV) dose of 2 mg kg^−1 and an oral (PO) dose of 10 mg kg^−1. Both formulations were prepared in 10% DMSO/90% (20% HP-β-CD in water, w/w). Blood samples were collected at 0.25, 0.5, 1, 2, 4, 8, and 24 hours post-dosing. For compound HSN748, male SD rats received oral doses of 20, 50, and 100 mg kg^−1 in a solution of 0.5% methylcellulose (4000 cp)/0.1 M citrate buffer (pH 4.5). Blood samples were collected at 0.25, 0.5, 1, 2, 4, 6, 8, and 24 hours post-dosing. For IV administration, male CD1 mice received 2 mg kg^−1 prepared with 5% DMSO/5% Tween80/40% PEG400/50% PBS, with sampling at 0.083, 0.25, 0.5, 1, 2, 4, 8, and 24 hours.
In oral PK studies, blood samples were collected at each time point, with a total of 3 animals per study. In IV studies, animals were euthanized after blood collection at each time point to collect brain tissue, using a total of 21 animals per study. Whole blood samples were collected in heparinized tubes and centrifuged to separate plasma. Brain samples were rinsed, weighed, and immediately frozen in liquid nitrogen, and stored at −80 °C until analysis. The PK studies were conducted by Pharmaron (Beijing, China). Animal procedures were performed in accordance with the Guidelines for Care and Use of Laboratory Animals of Pharmaron (Beijing, China) and approved by the Animal Ethics Committee of Pharmaron (Beijing, China).
The mean concentration-time profiles were analyzed using Phoenix WinNonlin (version 8.4; Certara USA, Inc., Princeton, NJ) to calculate standard PK parameters, including the area under the curve from zero to infinity (AUC), bioavailability (F), clearance, volume of distribution, and half-life (t1/2).

[3] = male, CD1, plasma, Mouse, IV, 2 mg kg^-1

For `CN1CCN(Cc2ccc(NC(=O)c3cncc(C#Cc4cnc5cccnn45)c3)cc2C(F)(F)F)CC1` [HSN748], the “inhibitory activity in parental BaF3 cells” value [1] was “little inhibitory activity”, the AUCBrain ([2]; Mouse, IV, 2 mg kg^-1) was 377 ng·h/mL and the “brain-to-plasma partition coefficient (Kp), AUCbrain/AUCPlasma” value ([2]; Mouse, IV, 2 mg kg^-1) was 0.42. The peak brain concentrations ([2]; Mouse, IV, 2 mg kg^-1) was “exceeding 198 ng ml^-1”, the Kp ([2]; male, 2 mg kg^-1, read-out: brain exposure as % of total plasma exposure (AUCplasma)) was roughly 0.42 and the Kp ([2]; male, 2 mg kg^-1, read-out: brain-to-plasma partition coefficient (Kp), AUCbrain/AUCPlasma) was 0.4. The Cmax [2, 3] was 513 ng/mL, the Tmax [2, 3] was 15 min and the clearance [2, 3] was 36.7 mL/min/kg. The half-life [2, 3] was 78 min, the AUC ([2]; male, CD1, plasma, Mouse, IV, 2 mg kg^-1, read-out: AUCPlasma) was 907 ng·h/mL and the Vd ([2]; male, CD1, plasma, Mouse, IV, 2 mg kg^-1, read-out: Vss) was 3.9 L/kg.
